Columns and labels:
[1] = tested on: A2780/TAX (A2780 cell line resistant to taxol); test: CCK-8 cytotoxicity, A2780/TAX; assay type: cell-based; details: Homo sapiens, 48 h, CCK-8, taxol-resistant, read-out: IC50, Mean ± SE, A2780/TAX
Experimental: Besides the high cytotoxicity, drug resistance is the other limiting factor of chemotherapeutics. In this study, the cytotoxicities of compound 14b towards five kinds of drug-resistant cancer cell lines were also evaluated. Except three kinds of cell lines that are resistant to three drugs commonly used in clinical practice, two kinds of cell lines that are resistant to MTAs were also evaluated.
A549 (non-small-cell-lung cancer cell line), Caski (human epithelial cervical cancer cell line), HepG2 (human liver carcinoma cell line), MCF-7 (human breast carcinoma cell line), C42B (human prostate cancer line C42B), L-02 (human normal hepatocytes), RWPE-1 (human prostate epithelial cells) and MCF-10A (human normal mammary epithelial cells) were obtained from National Collection of Authenticated Cell Cultures (Shanghai, China). […]
After 24 h, the medium containing different concentrations of tested compounds were added for another 48 h. […] The optical density was recorded with a microplate reader at 570 nm (Thermo Scientific, Varioskan LUX). All the experiments were repeated independently at least three times and the IC50 values were calculated […]

A549 cells = test: intracellular ROS detection by DCFH-DA; assay type: cell-based, human; details: A549, 10, 20 and 50 nM, 12 h
Text: The intrinsic mitochondrial pathway is one of the most well-studied mechanisms relevant to cell apoptosis. ROS accumulation and mitochondrial membrane potential (MMP) alteration play crucial roles in this pathway. In this study, a fluorescent dye including DCFH-DA and JC-1 was used to monitor the intracellular ROS and MMP, respectively.
Figure 5 ROS accumulation and MMP alteration induced by compound 14b. (A,B) The intracellular ROS detection by DCFH-DA after A549 cells treated with compound 14b at indicated concentrations for 12 h. (C,D) The detection of MMP monitored by JC-1 dye after A549 cells treated with compound 14b at the concentrations of 10, 20 and 50 nM for 12 h. […]
samples were fixed in ice-cold 70% ethanol overnight and removed with ice-cold PBS for three times. […] After the incubation, the prepared cell samples were immediately analyzed. Almost 10,000 events were detected by flow cytometry (Beckman Coulter, CytoFlex LX). The data regarding the number of cells in different phases of the cell cycle were or apoptotic cells were analyzed by […]
Caspase-3 activity was measured according to the manufacturer ’s instructions using a GreenNuc™ Caspase-3 assay kit for live cells (Beyotime, China). […] After incubation, the fluorescence intensity (excitation wavelength:
485 nm, emission wavelength: 515 nm) was recorded using a multifunctional microplate reader (Thermo Scientific, Varioskan LUX). […]

Structure (SMILES): COc1ccc(C(=O)c2ccc3c(ccn3C)c2)c2c1C=CC(C)(C)O2 [compound 14b, (5-methoxy-2,2-dimethyl-2H-chromen-8-yl)(1-methyl-1H-indol-5-yl)methanone]
- IC50 [1]: 42 ± 11 nM
- level of ROS (A549 cells): significantly rose abruptly in a dose-dependent manner

Reference: publication PMC9921564, “Novel Indole-Containing Hybrids Derived from Millepachine: Synthesis, Biological Evaluation and Antitumor Mechanism Study” (Molecules, 2023)
